Assays:
[1] = LogD at pH 7.4; assay type: physicochemical; details: buffer
[2] = Partition coefficient (logP); assay type: physicochemical; details: octanol/water
MCF7 = assay: Dose required for 30% clonal survival of ER positive MCF-7 breast cancer cells after 2 hr; assay type: functional, Homo sapiens
MDA-MB-231 = assay: Dose required for 30% clonal survival of ER negative MDA-MB-231 breast cancer cells after 2 hr; assay type: functional, Homo sapiens
[3] = Percent of 16-mer cleaved by piperidine after treatment with test compound for 24 hr at 37 degrees C; assay type: functional
[4] = target: Estrogen receptor (Homo sapiens) (UniProt Q92731+P03372); assay: Percent of covalently modified 16-mer (DNA adduct) in a slowly migrating complex with ER ligand binding domain (ER-LBD) in EMSA electrophoretic mobility shift assay; assay type: functional

Compound | logD [1] | logP [2] | ED30 (MCF7) [µM] | ED30 (MDA-MB-231) [µM] | Oligo modified [3] [%] | Oligo shifted [4] [%]
C[C@]12CC[C@@H]3c4ccc(O)cc4C[C@@H](CCCCCCNC(=O)CCCc4ccc(N(CCCl)CCCl)cc4)[C@H]3[C@@H]1CC[C@@H]2O | 5.07 | 5.07 | >20 | 20 | 14 | –
C[C@]12CC[C@@H]3c4ccc(O)cc4C[C@@H](CCCCCCNC(=O)CCCNC(=O)CCCc4ccc(N(CCCl)CCCl)cc4)[C@H]3[C@@H]1CC[C@@H]2O | 4.85 | 4.85 | >20 | >20 | 39 | –
C[C@]12CC[C@@H]3c4ccc(O)cc4C[C@@H](CCCCCCOC(=O)NCCCc4ccc(N(CCCl)CCCl)cc4)[C@H]3[C@@H]1CC[C@@H]2O | 5.61 | 5.61 | >20 | >20 | 3 | –
C[C@]12CC[C@@H]3c4ccc(O)cc4C[C@@H](CCCCCCNCC/N=C(/N)NCCCc4ccc(N(CCCl)CCCl)cc4)[C@H]3[C@@H]1CC[C@@H]2O | 3.12 | 6.27 | >20 | >20 | 29 | 93
C[C@]12CC[C@@H]3c4ccc(O)cc4C[C@@H](CCCCCC/N=C(/N)NCCCc4ccc(N(CCCl)CCCl)cc4)[C@H]3[C@@H]1CC[C@@H]2O | 2.52 | 5.67 | >20 | >20 | 58 | 38
C[C@]12CC[C@@H]3c4ccc(O)cc4C[C@@H](CCCCCCNCCCCNCCCCc4ccc(N(CCCl)CCCl)cc4)[C@H]3[C@@H]1CC[C@@H]2O | 2.22 | 5.32 | 5.1 | 7.9 | 79 | 38
C[C@]12CC[C@@H]3c4ccc(O)cc4C[C@@H](CCCCCCNCCCCc4ccc(N(CCCl)CCCl)cc4)[C@H]3[C@@H]1CC[C@@H]2O | 2.87 | 5.96 | 5.1 | 8.6 | 44 | 67
C[C@]12CC[C@@H]3c4ccc(O)cc4C[C@@H](CCCCCCNCCOC(=O)NCCCc4ccc(N(CCCl)CCCl)cc4)[C@H]3[C@@H]1CC[C@@H]2O | 2.22 | 5.32 | 5.1 | 9.6 | 45 | 93
